Values joined by “and” are separate entries in the source; they are usually repeats but may differ in a detail not shown here. Equal entries are not always repeated.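 All cell lines were grown in 96-well plates and treated with compound for 48 hours. GI50 = concentration required for 50% inhibition of growth. TGI marks complete inhibition of growth.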
Tests used:
Experiment in all cases: NCI anticancer screen, dose series, 48 h
OVCAR-5 ovarian = tested on: OVCAR-5 ovarian
OVCAR-8 ovarian = tested on: OVCAR-8 ovarian
LOX IMVI melanoma = tested on: LOX IMVI melanoma
K-562 leukemia = tested on: K-562 leukemia
SNB-19 CNS = tested on: SNB-19 CNS
COLO 205 colon = tested on: COLO 205 colon
A549 NSCLC = tested on: A549 NSCLC
SNB-75 CNS = tested on: SNB-75 CNS
OVCAR-4 ovarian = tested on: OVCAR-4 ovarian
HL-60(TB) leukemia = tested on: HL-60(TB) leukemia

Q: `Cc1cc2c(C)cc(=O)[nH]c2cc1N` was tested. Which TGI (OVCAR-5 ovarian) did it give?
A: > 100 µM

Q: And the TGI (OVCAR-8 ovarian)?
A: > 100 µM

Q: What about the TGI (LOX IMVI melanoma) of the same compound?
A: > 100 µM

Q: And the TGI (K-562 leukemia)?
A: > 100 µM

Q: What about the TGI (SNB-19 CNS) of the same compound?
A: > 100 µM

Q: What about the TGI (COLO 205 colon) of the same compound?
A: > 100 µM

Q: And the TGI (A549 NSCLC)?
A: > 100 µM

Q: And the TGI (SNB-75 CNS)?
A: > 100 µM

Q: And the TGI (OVCAR-4 ovarian)?
A: > 100 µM

Q: With `CCC12C[N+]3([O-])CCc4c([nH]c5ccccc45)C(C(=O)OC)(c4cc5c(cc4OC)N(C)C4C(O)(C(=O)OC)C(OC(C)=O)C6(CC)C=CCN7CCC54C76)CC(C3)C1O2` (centres undefined) as the compound, how does the TGI (OVCAR-5 ovarian) read?
A: 33.3 µM

Q: And the TGI (OVCAR-8 ovarian)?
A: 54.1 µM

Q: What about the TGI (LOX IMVI melanoma) of the same compound?
A: 51.7 µM

Q: What about the TGI (K-562 leukemia) of the same compound?
A: 6.28 µM

Q: And the TGI (SNB-19 CNS)?
A: 11.9 µM

Q: And the TGI (COLO 205 colon)?
A: 4.44 µM

Q: What about the TGI (A549 NSCLC) of the same compound?
A: 29.9 µM

Q: What about the TGI (SNB-75 CNS) of the same compound?
A: 0.952 µM

Q: What about the TGI (OVCAR-4 ovarian) of the same compound?
A: 45.9 µM

Q: What does the source list for `OC[C@@H](O)[C@H]1NC[C@@H](O)[C@H]1O`?
A: TGI (OVCAR-5 ovarian): > 100 µM; TGI (OVCAR-8 ovarian): > 100 µM; TGI (HL-60(TB) leukemia): > 100 µM; TGI (SNB-19 CNS): > 100 µM; TGI (COLO 205 colon): > 100 µM; TGI (A549 NSCLC): > 100 µM; TGI (SNB-75 CNS): > 100 µM; TGI (OVCAR-4 ovarian): > 100 µM

Q: Which results are given for `COc1ccc(/C(=N/O)c2ccccc2-c2nc3ccccc3c(=O)n2-c2ccc(S(=O)(=O)Nc3ncccn3)cc2)cc1C`?
A: TGI (OVCAR-5 ovarian): > 31.6 µM; TGI (OVCAR-8 ovarian): > 31.6 µM; TGI (HL-60(TB) leukemia): 20 µM; TGI (K-562 leukemia): 21.6 µM; TGI (SNB-19 CNS): > 31.6 µM; TGI (COLO 205 colon): > 31.6 µM; TGI (A549 NSCLC): > 31.6 µM; TGI (SNB-75 CNS): 26.6 µM; TGI (OVCAR-4 ovarian): > 31.6 µM

Q: Which results are given for `CCOC(=O)c1[nH]cc(C)c1-c1ccn(-c2ccccc2)c1`?
A: TGI (OVCAR-5 ovarian): > 100 µM; TGI (OVCAR-8 ovarian): > 100 µM; TGI (LOX IMVI melanoma): > 100 µM; TGI (K-562 leukemia): 51 µM; TGI (COLO 205 colon): > 100 µM; TGI (A549 NSCLC): > 100 µM; TGI (SNB-75 CNS): 49.5 µM; TGI (OVCAR-4 ovarian): > 100 µM

Q: `CC(=O)NS(=O)(=O)c1ccc(NC(=O)c2c3ccccc3nc3ccccc23)cc1` was tested. Which TGI (OVCAR-5 ovarian) did it give?
A: > 100 µM

Q: And the TGI (OVCAR-8 ovarian)?
A: > 100 µM

Q: And the TGI (LOX IMVI melanoma)?
A: > 100 µM

Q: What about the TGI (K-562 leukemia) of the same compound?
A: > 100 µM

Q: What about the TGI (SNB-19 CNS) of the same compound?
A: > 100 µM

Q: And the TGI (COLO 205 colon)?
A: > 100 µM

Q: And the TGI (A549 NSCLC)?
A: > 100 µM

Q: And the TGI (SNB-75 CNS)?
A: > 100 µM

Q: What about the TGI (OVCAR-4 ovarian) of the same compound?
A: > 100 µM

Q: Which results are given for `CC(C)(C)C1=Cc2cc3cc(C(C)(C)C)[nH]c(=O)c3cc2S(=O)(=O)N1`?
A: TGI (OVCAR-5 ovarian): 92.5 µM; TGI (OVCAR-8 ovarian): > 100 µM; TGI (HL-60(TB) leukemia): 43.1 µM; TGI (K-562 leukemia): > 100 µM; TGI (SNB-19 CNS): > 100 µM; TGI (COLO 205 colon): 39.9 µM; TGI (A549 NSCLC): 75.3 µM; TGI (SNB-75 CNS): > 100 µM; TGI (OVCAR-4 ovarian): > 100 µM

Q: What does the source list for `COC(=O)c1c(C)cccc1/C=C1/Cc2c(C)cccc2C1=O`?
A: TGI (OVCAR-5 ovarian): > 100 µM; TGI (OVCAR-8 ovarian): > 100 µM; TGI (LOX IMVI melanoma): > 100 µM; TGI (HL-60(TB) leukemia): > 100 µM; TGI (A549 NSCLC): > 100 µM; TGI (SNB-75 CNS): > 100 µM; TGI (OVCAR-4 ovarian): > 100 µM

Q: `c1ccc2c(c1)[nH]c1nc3cc(-c4ccc5nc6c(nc5c4)[nH]c4ccccc46)ccc3nc12` was tested. Which TGI (OVCAR-5 ovarian) did it give?
A: > 100 µM

Q: What about the TGI (OVCAR-8 ovarian) of the same compound?
A: > 100 µM

Q: And the TGI (LOX IMVI melanoma)?
A: > 100 µM

Q: And the TGI (HL-60(TB) leukemia)?
A: > 100 µM

Q: And the TGI (SNB-19 CNS)?
A: > 100 µM

Q: And the TGI (A549 NSCLC)?
A: > 100 µM

Q: And the TGI (SNB-75 CNS)?
A: > 100 µM

Q: What about the TGI (OVCAR-4 ovarian) of the same compound?
A: > 100 µM

Q: Which results are given for `COc1cc(OCc2ccc3oc(=O)c(-c4ccccc4)nc3c2)cc(OC)c1OC`?
A: TGI (OVCAR-5 ovarian): > 100 µM; TGI (OVCAR-8 ovarian): > 100 µM; TGI (LOX IMVI melanoma): > 100 µM; TGI (K-562 leukemia): > 100 µM; TGI (SNB-19 CNS): > 100 µM; TGI (COLO 205 colon): > 100 µM; TGI (A549 NSCLC): > 100 µM; TGI (SNB-75 CNS): > 100 µM; TGI (OVCAR-4 ovarian): > 100 µM

Q: For `C=C1C(O)C2(O)OCC34C(CC5C(C)=CC(=O)C(O)C5(C)C23)OC(=O)C(OC(=O)C/C=C(\C)CCCCC)C14` (centres undefined), which GI50 (OVCAR-5 ovarian) is on record?
A: 0.0022 µM

Q: What about the GI50 (OVCAR-8 ovarian) of the same compound?
A: < 0.001 µM

Q: What about the TGI (OVCAR-8 ovarian) of the same compound?
A: 0.00565 µM and 0.0192 µM and 0.0188 µM

Q: What about the GI50 (HL-60(TB) leukemia) of the same compound?
A: < 0.001 µM

Q: And the GI50 (K-562 leukemia)?
A: < 0.001 µM

Q: And the GI50 (SNB-19 CNS)?
A: < 0.001 µM

Q: And the GI50 (COLO 205 colon)?
A: 0.00123 µM

Q: And the TGI (COLO 205 colon)?
A: 0.00812 µM and 0.0206 µM and 0.0272 µM

Q: And the GI50 (A549 NSCLC)?
A: 0.00137 µM

Q: What about the TGI (A549 NSCLC) of the same compound?
A: 0.0233 µM and 0.0698 µM and 0.0535 µM

Q: And the GI50 (SNB-75 CNS)?
A: < 0.001 µM

Q: And the TGI (SNB-75 CNS)?
A: 0.00366 µM and 0.0278 µM

Q: What about the GI50 (OVCAR-4 ovarian) of the same compound?
A: < 0.001 µM

Q: How did the GI50 (OVCAR-5 ovarian) turn out when `CCCCN1CCN(c2ccc3nc(-c4ccc5nc(-c6ccc(C(F)(F)F)cc6)[nH]c5c4)[nH]c3c2)CC1` was run?
A: 1.87 µM

Q: What about the TGI (OVCAR-5 ovarian) of the same compound?
A: 3.32 µM

Q: What about the GI50 (OVCAR-8 ovarian) of the same compound?
A: 1.24 µM

Q: And the TGI (OVCAR-8 ovarian)?
A: 2.64 µM

Q: What about the GI50 (LOX IMVI melanoma) of the same compound?
A: 0.839 µM

Q: And the TGI (LOX IMVI melanoma)?
A: 2.27 µM

Q: What about the GI50 (HL-60(TB) leukemia) of the same compound?
A: 0.923 µM

Q: And the TGI (HL-60(TB) leukemia)?
A: 2.63 µM

Q: What about the GI50 (COLO 205 colon) of the same compound?
A: 1.45 µM

Q: What about the TGI (COLO 205 colon) of the same compound?
A: 2.95 µM

Q: And the GI50 (A549 NSCLC)?
A: 0.926 µM

Q: And the TGI (A549 NSCLC)?
A: 2.24 µM

Q: What about the GI50 (SNB-75 CNS) of the same compound?
A: 1.11 µM

Q: What about the TGI (SNB-75 CNS) of the same compound?
A: 2.34 µM

Q: And the GI50 (OVCAR-4 ovarian)?
A: 0.859 µM

Q: And the TGI (OVCAR-4 ovarian)?
A: 2.39 µM

Q: Which results are given for `COc1cc(C2c3cc4c(cc3OC(NN=C(C)C)C2C)OCO4)cc(OC)c1O` (centres undefined)?
A: TGI (OVCAR-5 ovarian): > 100 µM; TGI (OVCAR-8 ovarian): > 100 µM; TGI (SNB-19 CNS): > 100 µM; TGI (COLO 205 colon): > 100 µM; TGI (A549 NSCLC): > 100 µM; TGI (SNB-75 CNS): 48.5 µM; TGI (OVCAR-4 ovarian): > 100 µM

Q: For `O=C(O)C1CC(c2ccc(F)cc2)=Nc2ccc(F)cc2S1` (centres undefined), which TGI (OVCAR-5 ovarian) is on record?
A: > 100 µM

Q: What about the TGI (OVCAR-8 ovarian) of the same compound?
A: > 100 µM

Q: What about the TGI (HL-60(TB) leukemia) of the same compound?
A: > 100 µM

Q: What about the TGI (K-562 leukemia) of the same compound?
A: > 100 µM

Q: What about the TGI (SNB-19 CNS) of the same compound?
A: > 100 µM

Q: What about the TGI (COLO 205 colon) of the same compound?
A: > 100 µM

Q: And the TGI (A549 NSCLC)?
A: > 100 µM

Q: What about the TGI (SNB-75 CNS) of the same compound?
A: > 100 µM

Q: What about the TGI (OVCAR-4 ovarian) of the same compound?
A: > 100 µM

Q: Which TGI (OVCAR-5 ovarian) does the source give for `COc1ccc(CC(CO)NC(=O)OCc2ccccc2)cc1Oc1ccc(CC(CO)NC(=O)OCc2ccccc2)cc1` (centres undefined) here?
A: 30.9 µM

Q: What about the TGI (SNB-19 CNS) of the same compound?
A: 51.8 µM

Q: And the TGI (COLO 205 colon)?
A: 64.9 µM

Q: What about the TGI (A549 NSCLC) of the same compound?
A: 27.2 µM

Q: What about the TGI (SNB-75 CNS) of the same compound?
A: 11.7 µM

Q: And the TGI (OVCAR-4 ovarian)?
A: > 100 µM

Q: Which results are given for `CCCCOC(C)(C)/C=C/C(O)[C@](C)(O)[C@H]1[C@H](O)C[C@@]2(C)[C@@H]3CCc4c(cc(OC5OC(CO)C(O)C(O)C5O)c(O)c4C)C3(C)C(=O)C[C@]12C` (some centres undefined)?
A: TGI (OVCAR-5 ovarian): > 100 µM; TGI (OVCAR-8 ovarian): > 100 µM; TGI (LOX IMVI melanoma): > 100 µM; TGI (K-562 leukemia): > 100 µM; TGI (SNB-19 CNS): > 100 µM; TGI (COLO 205 colon): > 100 µM; TGI (A549 NSCLC): > 100 µM; TGI (SNB-75 CNS): > 100 µM; TGI (OVCAR-4 ovarian): > 100 µM

Q: Which results are given for `O=c1cc(/C=C/c2ccc(O)c(O)c2)oc(/C=C/c2ccc(O)c(O)c2)c1`?
A: TGI (OVCAR-5 ovarian): 44.8 µM; TGI (OVCAR-8 ovarian): 22.4 µM; TGI (LOX IMVI melanoma): > 25.2 µM; TGI (K-562 leukemia): > 20.7 µM; TGI (SNB-19 CNS): 18.2 µM; TGI (COLO 205 colon): 21.6 µM; TGI (A549 NSCLC): 37.1 µM; TGI (SNB-75 CNS): 15.3 µM; TGI (OVCAR-4 ovarian): 11.7 µM
